Data on two compounds can be found in patent US20240101538A1, “PROTEIN-PROTEIN INTERACTION MODULATORS OF AURORA KINASE A AND THEIR USE IN THE PREVENTION AND/OR TREATMENT OF CANCER” (EBERHARD KARLS UNIVERSITÄT TÜBINGEN, priority 2020, published 2024).

Read-outs that look alike come from different tables or passages of the source.

For test [1], the system named is NMP53^−/− cells. In words: Colony formation assay on NMP53^−/− cells. Format: cell-based, murine. As to conditions: for minimal effective concentration: Mus musculus, 120 h, 5 days, read-out: EC (NMP53^−/−). An excerpt:
(§1) To evaluate the effect of small molecules equipped with R-spine interacting moieties, the inventors screened a focused library of proprietary p38a MAP-Kinase inhibitors which were equipped with R-spine interacting pharmacophores. To this end, the inventors utilized a screening system as developed in Dauch et al.^2 The screening system is based on colony formation assays of cell lines isolated from Nras-driven, Trp53-deficient murine HCCs, whose development is dependent on MYC (NMP53^−/− cells), as well as Nras-driven, Cdkn2a^ARF-deficient murine HCCs, which develop independently of MYC (NMCdkn2a^ARF−/− cells). Importantly, NMP53^−/− cells are sensitive to AURKA inhibitors, which induce a conformational shift in AURKA, whereas NMCdkn2a^ARF−/− are not sensitive to such compounds.
(§2) For Colony Formation Assays, cells were seeded at a density of 50 000 cells per 6 well and next day treated with a 2-fold dilution series of the indicated compounds or the highest corresponding DMSO concentration as control. After 5 days, the cells were fixed with a 10% formaldehyde solution for 30 min, washed once with water, stained with a 0.5% crystal violet solution for 30 min and washed twice with water. The compounds effective concentration (EC) was determined according to the lowest concentration in the dilution series, that inhibited cell growth substantially. The resulting benzamide containing hit structure 1, with a twofold selectivity towards NMP53^−/− cells (effective concentration on NMP53^−/− cells (EC): 2 μM, EC on Cdkn2a^ARF−/−: 4 μM, FIG. 1), served as the inventors' starting point for further compound development.

Test [2] deals with NMCdkn2a^ARF−/− cells. Nature of the test: Colony formation assay on NMCdkn2a^ARF−/− cells. The test is classed as cell-based, murine. As to conditions: Mus musculus, 120 h, 5 days, read-out: EC (NMCdkn2a^ARF−/−).
Description: as §1, §2

Test [3] has as its system MYC. Nature of the test: Western blot analysis of cellular MYC levels in NMP53^−/− cells. Particulars: 8 h after treatment with increasing concentrations. Format: cell-based, murine. The procedure: A. Western blot analysis of MYC and AURKA in tumor cells (NMP53/cells) 8 h after treatment with increasing concentrations of compound 2c [N-(5-((4-(1H-pyrazole-4-yl)benzyl)amino)-2-fluorophenyl)-3-(furan-2-yl)propanamide]. Vinculin served as loading control (n=2) B. Western blot analysis of MYC and AURKA in tumor cells (NMP53^−/− cells) 8 h after treatment with increasing concentrations of compound 3a [N-(2-fluoro-5-((4-(1-methyl-1H-pyrazole-4-yl)benzyl)amino)phenyl)-3-(furan-2-yl)propanamide]. Vinculin served as loading control (n=2). […]
For western blot analysis, 2×10^6 cells were seeded per 10 cm dish and next day treated with the indicated compound concentrations. […] After addition of 4× Laemmli buffer (200 mM Tris-HCl pH 6.8, 8% SDS, 4% (3-mercaptoethanol, 40% glycerol, 0.33% bromophenol blue) the lysates were boiled for 5 min at 95° C. For western blot analysis, proteins were separated by SDS-polyacrylamide electrophoresis (using 25 μg of each sample) and transferred onto PVDF Immobilon-P membranes (Millipore). The blots were incubated with antibodies specific to MYC (Abeam ab32072, 1:1 000), AURKA (Abeam ab13824, 1:1 000) and Vinculin (Sigma Aldrich V9131-2 mL 1:10 000), followed by peroxidase-conjugated secondary antibodies. Proteins were detected by ChemiDoc MP Imaging System (Bio-Rad) using Clarity Western ECL Substrate (Bio-Rad).

Test [4] relates to 320 wildtype kinases. In words: Kinome screen with 320 wildtype kinases. The test is classed as biochemical.
The target of test [5] is interaction of AURKA with TPX2 (Homo sapiens (Human), UniProt O14965). In words: Co-immunoprecipitation of FLAG-AURKA and western blot for TPX2. The test is classed as cell-based, murine. As to conditions: Co-IP with anti-FLAG, NMP53^−/− cells synchronized with nocodazole. The procedure:
Tumor cells (NMP53^−/− cells) expressing a doxycycline-inducible FLAG-AURKA construct were kept on doxycycline for 24 hours, synchronized with 50 ng/ml nocodazole for 6 hours and treated with two of the developed compounds or DMSO as a control. In particular, the top “AURKA-Ligand” refers to compound 3a [N-(2-fluoro-5-((4-(1-methyl-1H-pyrazole-4-yl)benzyl)amino)phenyl)-3-(furan-2-yl),propanamide], and the bottom “AURKA-Ligand” refers to compound 2c [N-(5-((4-(1H-pyrazole-4-yl)benzyl)amino)-2-fluorophenyl)-3-(furan-2-yl)propanamide]. Co-immunoprecipitations (Co-IP) were carried out with an antibody against FLAG. A DMSO-treated sample without FLAG-AURKA induction served as a control. The AURKA and TPX2 levels of the Co-IP samples and their input were determined by western blotting.
Tumor cells (NMP53/cells) expressing a doxycycline-inducible FLAG-AURKA construct were kept on doxycycline for 24 hours, synchronized with 50 ng/ml nocodazole for 6 hours and treated with two of the developed compounds of this invention (3a and 2c), or DMSO as a control. Then, co-immunoprecipitations (Co-IP) were carried out with an antibody against FLAG. A DMSO-treated sample without FLAG-AURKA induction served as a control. The AURKA and TPX2 levels of the Co-IP samples and their input were determined by western blotting.

The mark [6] stands for this setting: colony formation assay, lowest concentration of 2-fold dilution series that inhibited cell growth substantially.
Setting [7] is: lowest concentration of 2-fold dilution series that inhibited cell growth substantially.

Chain of interaction of AURKA with TPX2 (O14965 whole entry, looked up): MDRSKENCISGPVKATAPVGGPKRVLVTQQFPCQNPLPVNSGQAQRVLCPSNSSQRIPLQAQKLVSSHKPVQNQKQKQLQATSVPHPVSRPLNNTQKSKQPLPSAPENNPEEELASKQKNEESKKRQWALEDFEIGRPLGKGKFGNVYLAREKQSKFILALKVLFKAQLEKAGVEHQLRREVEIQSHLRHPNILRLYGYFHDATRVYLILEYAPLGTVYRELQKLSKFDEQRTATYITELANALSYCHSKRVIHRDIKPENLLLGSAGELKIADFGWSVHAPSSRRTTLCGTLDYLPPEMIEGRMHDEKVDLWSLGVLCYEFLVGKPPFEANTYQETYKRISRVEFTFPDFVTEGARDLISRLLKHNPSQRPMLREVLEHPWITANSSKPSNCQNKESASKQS
Chain of interaction of AURKA with TPX2 (A2APB8 whole entry partner, looked up): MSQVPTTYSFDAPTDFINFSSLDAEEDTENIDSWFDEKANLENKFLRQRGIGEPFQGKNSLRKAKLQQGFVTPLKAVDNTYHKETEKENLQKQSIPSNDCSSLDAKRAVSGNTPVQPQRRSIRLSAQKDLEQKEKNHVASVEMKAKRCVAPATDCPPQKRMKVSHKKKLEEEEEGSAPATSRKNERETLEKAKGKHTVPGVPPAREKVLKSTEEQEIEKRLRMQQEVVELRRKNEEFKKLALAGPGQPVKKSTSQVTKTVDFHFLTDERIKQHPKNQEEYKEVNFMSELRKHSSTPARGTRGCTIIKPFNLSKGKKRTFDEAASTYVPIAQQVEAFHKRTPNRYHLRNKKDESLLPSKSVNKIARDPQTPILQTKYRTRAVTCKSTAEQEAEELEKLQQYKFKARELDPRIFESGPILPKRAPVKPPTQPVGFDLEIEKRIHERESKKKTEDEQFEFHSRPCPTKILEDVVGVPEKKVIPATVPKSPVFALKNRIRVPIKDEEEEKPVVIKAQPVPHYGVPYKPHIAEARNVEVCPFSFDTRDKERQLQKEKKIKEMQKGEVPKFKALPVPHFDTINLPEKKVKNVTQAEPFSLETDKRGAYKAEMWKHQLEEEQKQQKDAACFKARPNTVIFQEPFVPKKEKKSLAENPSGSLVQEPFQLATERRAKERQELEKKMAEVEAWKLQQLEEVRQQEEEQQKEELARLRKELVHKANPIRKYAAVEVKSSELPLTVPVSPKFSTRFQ

For the compound `O=C(CCc1ccco1)Nc1cc(NCc2ccc(-c3cn[nH]c3)cc2)ccc1F` [Compound 2c, N-(5-((4-(1H-pyrazole-4-yl)benzyl)amino)-2-fluorophenyl)-3-(furan-2-yl)propanamide], the “higher cellular activity compared to the initial hit 1” value in test [1] (EC on NMP53^−/− cells) is “up to 16 fold”. In addition, the “increased efficacy compared to compound 2a” value in test [1] (EC on NMP53^−/− cells) was determined as 4 fold. Moreover, the minimal effective concentration in test [1] (setting [6]) was 0.125 µM; in test [1] (colony formation assay), 0.125 µM; in test [2] (setting [7]) it was 1 µM; in test [2], above 1 µM. Further, in test [1] (NMP53^−/− versus NMCdkn2a^ARF−/− cells, colony formation assay), the “selectivity for NMP53^−/− cells” value is given as “up to 8 fold”. For the same compound, the MYC levels result in test [3] is “reduced in a concentration dependent manner”. For the same compound, in test [4] (100 nM), the “off-targets in kinome screen” value was “no off-targets”. The selectivity score in test [4] (500 nM) is 0.019. In addition, the “interaction of AURKA with TPX2” value in test [5] is given as “largely enhance”.
As for `Cn1cc(-c2ccc(CNc3ccc(F)c(NC(=O)CCc4ccco4)c3)cc2)cn1` [Compound 3a, N-(2-fluoro-5-((4-(1-methyl-1H-pyrazole-4-yl)benzyl)amino)phenyl)-3-(furan-2-yl)propanamide], the minimal effective concentration in test [1] (setting [6]) was 0.031 µM; in test [1] (colony formation assay) it was 0.031 µM; in test [2] (setting [7]), 0.25 to 0.5 µM; in test [2], 0.25 to 0.5 µM. Also, the MYC levels entry in test [3] is recorded as “reduced in a concentration dependent manner”. The “inhibition in kinome screen” value in test [4] (320 wildtype kinases) was “overall no inhibition”. For the same compound, in test [5], the “interaction of AURKA with TPX2” value is given as “largely enhance”.
